Where two headings read alike, the source gives them in different places.
Columns and labels:
[1] = system: early stage HCT-116 colon carcinoma
Procedure: (§1) This efficacy may be quantified, for example by the log10 cells killed, which is determined by the following formula:
(§2) log10 cell killed=T-C(days)/3.32×Td
(§3) A product is considered to be active if the log10 cell kill is greater than or equal to 0.7. A product is considered to be very active is the log10 cell kill is greater than 2.8.
Three dosage levels of capecitabine were given alone on days 18-22 and 25-29. In the combination arm, two semi-simultaneous schedules were investigated.

[2] = system: metastatic colorectal cancer; conditions: oral capecitabine, first-line, phase III; cited from earlier work
[3] = system: human colon carcinoma strain HCT-116; conditions: for Comments / Log10 cell Kill / T-C (Tumor Growth Delay): days 5-9, 12-16; for activity at the maximum tolerated dose: maximum tolerated doses, p.o., HCT-116 in Swiss-nude mice
Procedure: as §1, §2, §3

[4] = capecitabine 443 mg/kg/adm p.o., days 18-22 & 25-29
[5] = capecitabine 713 mg/kg/adm p.o., days 18-22 & 25-29
[6] = capecitabine 1150 mg/kg/adm p.o., days 18-22 & 25-29
[7] = capecitabine 443 mg/kg/adm p.o.
[8] = capecitabine 713 mg/kg/adm p.o.
[9] = CPT-11 60 mg/kg/adm p.o., days 18-22
[10] = CPT-11 96 mg/kg/adm p.o., days 18-22

## CCCCCOC(=O)Nc1nc(=O)n([C@@H]2O[C@H](C)[C@@H](O)[C@H]2O)cc1F [capecitabine, 5′-deoxy-5-fluoro-N-[(pentyloxy)-carbonyl]-cytidine]
[1]; [4]
  Comments: Active
  Log10 cell Kill: 2.1
  T-C (Tumor Growth Delay): 26.1 days
[1]; [5]
  Comments: Active
  Log10 cell Kill: 2.1
  T-C (Tumor Growth Delay): 25.2 days
[1]; [6]
  Log10 cell Kill: 3.2
  T-C (Tumor Growth Delay): 39.4 days
[2]
  efficacy compared with i.v. 5-FU/leucovorin (Mayo Clinic regimen): superior response rate and at least equivalent survival and time to disease progression
  safety profile compared with the Mayo Clinic regimen: more favourable safety profile
[3]; [7]
  Comments: Active
  Log10 cell Kill: 1.1
  T-C (Tumor Growth Delay): 16.3 days
[3]; [8]
  Comments: Active
  Log10 cell Kill: 2.6
  T-C (Tumor Growth Delay): 38.7 days
[3]
  activity at the maximum tolerated dose: highly active

## irinotecan [CPT-11]
[1]; [9]
  Comments: Active
  Log10 cell Kill: 1.7
  T-C (Tumor Growth Delay): 21.4 days
[1]; [10]
  Comments: HNTD
  Log10 cell Kill: 1.7
  T-C (Tumor Growth Delay): 21.3 days
[1]; CPT-11 155 mg/kg/adm p.o., days 18-22
  Comments: Toxic
[3]; CPT-11 29 mg/kg/adm p.o.
  Comments: Active
  Log10 cell Kill: 2.1
  T-C (Tumor Growth Delay): 30.1 days
[3]; CPT-11 48 mg/kg/adm p.o.
  Comments: HNTD
[3]; CPT-11 80 mg/kg/adm p.o.
  Comments: Toxic
[3]
  activity at the maximum tolerated dose: highly active

From patent publication US6664242B2 (priority 2000, dated 2003)
